Drawing on patent publication US20240208972A1, “LRRK2 INHIBITORS AND USES THEREOF” (NEURON23, INC., priority 2022, published 2024), this text covers IC50 and CLhep predicted for 19 compounds.

Data set [1] concerns the target T1, wt human LRRK2, catalytic site (Homo sapiens, UniProt Q5S007).
T1 construct: wt human LRRK2, catalytic site, catalytic site (ThermoFisher/USA); purchased ThermoFisher
Briefly: TR-FRET LanthaScreen Tb Kinase Activity Assay, LRRK2 kinase inhibition. Format: biochemical. To be noted: 2 nM wt human LRRK2, 400 nM peptide, 38 μM ATP. Summed up:
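TR-FRET LanthaScreen format: 2 nM wt human LRRK2 catalytic domain with 400 nM fluorescein-ERM (LRRKtide) and 38 μM ATP in Kinase Buffer A, after 15 min compound preincubation. Reaction 120 min at RT, then EDTA plus Tb-anti-pLRRKtide antibody for 60 min; emission ratios analysed per kit protocol.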
In general terms: In TR-FRET formats the signal depends on donor and acceptor labels being close together.

Data set [2] is described as follows: Human hepatocyte stability, in vitro h-Hept CLpredict. To be noted: cryopreserved hepatocytes, predicted hepatic clearance, cells without asterisk, read-out: hHep Cl. Type of data set: in vitro ADME. Summed up:
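Cryopreserved human hepatocytes at 0.5×10^6 viable cells/mL in William's E medium, compound added from 100 μM solution, sampled 0–120 min in duplicate with LC/MS/MS quantitation. t1/2 from parent disappearance converted to CLint, then scaled to predicted hepatic clearance (well-stirred model, fub assumed 1) and extraction ratio.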

Each structure is given as a SMILES string.

T1 sequence (Q5S007 1879-2138 limits assumed): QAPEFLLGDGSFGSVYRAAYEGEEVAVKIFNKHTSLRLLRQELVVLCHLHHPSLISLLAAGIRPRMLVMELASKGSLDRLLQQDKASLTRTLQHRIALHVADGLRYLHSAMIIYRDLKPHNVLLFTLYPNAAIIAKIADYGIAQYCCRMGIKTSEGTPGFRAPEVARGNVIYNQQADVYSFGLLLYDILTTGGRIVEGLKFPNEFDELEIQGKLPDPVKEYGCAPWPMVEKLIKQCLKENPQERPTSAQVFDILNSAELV

The term IC50 denotes the concentration that gives 50% inhibition. High values mean weaker potency in that assay, low ones greater potency in that assay. `Cc1n[nH]c2c1N=C(c1c(F)cccc1F)Nc1c-2cc(N2CCN(CC(F)F)CC2)nc1C` [Example 19, 13-[4-(2,2-difluoroethyl)piperazin-1-yl]-8-(2,6-difluorophenyl)-5,11-dimethyl-3,4,7,9,12-pentazatricyclo[8.4.0.02,6]tetradeca-1(10),2(6),4,7,11,13-hexaene] had an IC50 in data set [1] of less than 2 nM. Also, in data set [2], the CLhep predicted at 1 µM is 6.3 to 14.7 mL/min/kg.

`Cc1n[nH]c2c1N=C(c1c(F)cccc1F)Nc1c-2cc(N2CCN(CCF)CC2)nc1C` [Example 9, 8-(2,6-difluorophenyl)-13-[4-(2-fluoroethyl)piperazin-1-yl]-5,11-dimethyl-3,4,7,9,12-pentazatricyclo[8.4.0.02,6]tetradeca-1(10),2(6),4,7,11,13-hexaene] came in with an IC50 in data set [1] of less than 2 nM. In addition, the CLhep predicted at 1 µM in data set [2] is less than 6.3 mL/min/kg.

Regarding `[2H]C([2H])([2H])c1n[nH]c2c1N=C(c1c(F)cccc1F)Nc1cnc(N3CCOCC3)cc1-2` [Example 32, 4-[8-(2,6-difluorophenyl)-5-(trideuteriomethyl)-3,4,7,9,12-pentazatricyclo[8.4.0.02,6]tetradeca-1(10),2(6),4,7,11,13-hexaen-13-yl]morpholine], in data set [1], the half-inhibitory concentration (IC50) was less than 2 nM. The CLhep predicted at 1 µM in data set [2] is less than 6.3 mL/min/kg.

`Cc1n[nH]c2c1N=C(c1c(F)cccc1F)Nc1cnc(-c3ccn(C(F)F)n3)cc1-2` [Example 12, 13-[1-(difluoromethyl)pyrazol-3-yl]-8-(2,6-difluorophenyl)-5-methyl-3,4,7,9,12-pentazatricyclo[8.4.0.02,6]tetradeca-1(10),2(6),4,7,11,13-hexaene] returned an IC50 in data set [1] of less than 2 nM. Also, the CLhep predicted at 1 µM in data set [2] is less than 6.3 mL/min/kg.

Consider `Cc1n[nH]c2c1N=C(c1c(F)cccc1F)Nc1ccc(N3CCO[C@@H](C)C3)cc1-2` [Example 26, (S)-4-(5-(2,6-difluorophenyl)-3-methyl-1,6-dihydrobenzo[d]pyrazolo[3,4-f][1,3]diazepin-9-yl)-2-methylmorpholine], for which, in data set [1], the IC50 was in the range of 2 to 100 nM. For the same compound, in data set [2], the CLhep predicted at 1 µM is less than 6.3 mL/min/kg.

Compound `Cc1n[nH]c2c1N=C(c1c(F)cccc1F)Nc1ccc(-c3cnn(C(F)F)c3)cc1-2` [Example 13, 9-[1-(difluoromethyl)pyrazol-4-yl]-5-(2,6-difluorophenyl)-3-methyl-1,6-dihydropyrazolo[4,3-d][1,3]benzodiazepine] showed a half-maximal inhibitory concentration (IC50) in data set [1] of less than 2 nM. For the same compound, the CLhep predicted at 1 µM in data set [2] was 6.3 to 14.7 mL/min/kg.

In data set [1], `Cc1n[nH]c2c1N=C(c1c(F)cccc1F)Nc1c-2cc(N2CCN(CCF)C[C@H]2C)nc1C` (single isomer, unassigned) [Example 18] had an IC50 of less than 2 nM. The CLhep predicted at 1 µM in data set [2] was 6.3 to 14.7 mL/min/kg.

In data set [1], `Cc1n[nH]c2c1N=C(c1c(F)cccc1F)Nc1cc(F)c(N3CCOCC3)cc1-2` [Example 28, 4-[5-(2,6-difluorophenyl)-8-fluoro-3-methyl-1,6-dihydropyrazolo[4,3-d][1,3]benzodiazepine-9-yl]morpholine] gave an IC50 of 2 to 100 nM. In addition, the CLhep predicted at 1 µM in data set [2] is less than 6.3 mL/min/kg.

For `Cc1n[nH]c2c1N=C(c1c(F)cccc1F)Nc1c-2cc(N2CCN(CC(F)(F)F)CC2)nc1C` [Example 23, 5-(2,6-difluorophenyl)-3,7-dimethyl-9-(4-(2,2,2-trifluoroethyl)piperazin-1-yl)-1,6-dihydropyrazolo[4,3-d]pyrido[4,3-f][1,3]diazepine], the IC50 in data set [1] is less than 2 nM. For the same compound, the CLhep predicted at 1 µM in data set [2] was 6.3 to 14.7 mL/min/kg.

Turning to `Cn1nccc1-c1cc2c(cn1)NC(c1c(F)cccc1F)=Nc1c(Cl)n[nH]c1-2` [Example 59, 3-chloro-5-(2,6-difluorophenyl)-9-(1-methyl-1H-pyrazol-5-yl)-1,6-dihydropyrazolo[4,3-d]pyrido[4,3-f][1,3]diazepine], in data set [1], the half-maximal inhibitory concentration (IC50) was less than 2 nM. Moreover, the CLhep predicted at 1 µM in data set [2] was 6.3 to 14.7 mL/min/kg.

As to `Cc1n[nH]c2c1N=C(c1c(F)cccc1F)Nc1ccc(N3CCO[C@H](C)C3)cc1-2` [Example 7, (R)-4-(5-(2,6-difluorophenyl)-3-methyl-1,6-dihydrobenzo[d]pyrazolo[3,4-f][1,3]diazepin-9-yl)-2-methylmorpholine], the half-inhibitory concentration (IC50) in data set [1] was less than 2 nM. The CLhep predicted at 1 µM in data set [2] is 6.3 to 14.7 mL/min/kg.

As to `Cc1n[nH]c2c1N=C(c1c(F)cccc1F)Nc1cnc(N3CCO[C@@H](C(F)(F)F)C3)cc1-2` [Example 55, (2R)-4-[8-(2,6-difluorophenyl)-5-methyl-3,4,7,9,12-pentazatricyclo[8.4.0.02,6]tetradeca-1(10),2(6),4,7,11,13-hexaen-13-yl]-2-(trifluoromethyl)morpholine], in data set [1], the concentration for half-maximal inhibition (IC50) is less than 2 nM. The CLhep predicted at 1 µM in data set [2] is 6.3 to 14.7 mL/min/kg.

Turning to `Cc1n[nH]c2c1N=C(c1c(F)cccc1F)Nc1c-2cc(N2CC3(CCOCC3)C2)nc1C` [Example 47, 2-[8-(2,6-difluorophenyl)-5,11-dimethyl-3,4,7,9,12-pentazatricyclo[8.4.0.02,6]tetradeca-1(10),2(6),4,7,11,13-hexaen-13-yl]-7-oxa-2-azaspiro[3.5]nonane], the 50% inhibitory concentration (IC50) in data set [1] was less than 2 nM. Further, in data set [2], the CLhep predicted at 1 µM was 6.3 to 14.7 mL/min/kg.

For the compound `Cc1n[nH]c2c1N=C(c1c(F)cc(F)cc1F)Nc1ccc(N3CCOCC3)cc1-2` [Example 27, 4-[3-methyl-5-(2,4,6-trifluorophenyl)-1,6-dihydropyrazolo[4,3-d][1,3]benzodiazepin-9-yl]morpholine], in data set [1], the half-inhibitory concentration (IC50) lay within 2 to 100 nM. Besides, the CLhep predicted at 1 µM in data set [2] is 6.3 to 14.7 mL/min/kg.

In data set [1], `[2H]C([2H])([2H])c1n[nH]c2c1N=C(c1c(F)cccc1F)Nc1ccc(N3CCO[C@@H](C)C3)cc1-2` [Example 34, (2S)-4-[5-(2,6-difluorophenyl)-3-(trideuteriomethyl)-1,6-dihydropyrazolo[4,3-d][1,3]benzodiazepin-9-yl]-2-methyl-morpholine] displayed a half-maximal inhibitory concentration (IC50) of less than 2 nM. Moreover, the CLhep predicted at 1 µM in data set [2] was less than 6.3 mL/min/kg.

In turn, `[2H]C1([2H])OC([2H])([2H])C([2H])([2H])N(c2ccc3c(c2)-c2[nH]nc(C)c2N=C(c2c(F)cccc2F)N3)C1([2H])[2H]` [Example 22, 2,2,3,3,5,5,6,6-octadeuterio-4-[5-(2,6-difluorophenyl)-3-methyl-1,6-dihydropyrazolo[4,3-d][1,3]benzodiazepin-9-yl]morpholine] yielded an IC50 in data set [1] of less than 2 nM. For the same compound, the CLhep predicted at 1 µM in data set [2] is 6.3 to 14.7 mL/min/kg.

Compound `Cc1n[nH]c2c1N=C(c1c(F)cccc1F)Nc1ccc(N3CCOCC3)cc1-2` [Example 29, 4-(5-(2,6-difluorophenyl)-3-methyl-1,6-dihydrobenzo[d]pyrazolo[3,4-f][1,3]diazepin-9-yl)morpholine] returned an IC50 in data set [1] of less than 2 nM. Further, the CLhep predicted at 1 µM in data set [2] was 6.3 to 14.7 mL/min/kg.

Turning to `Cc1n[nH]c2c1N=C(c1c(F)cccc1F)Nc1c-2cc(N2CCO[C@@H](C)C2)nc1C` [Example 40, (S)-4-(5-(2,6-difluorophenyl)-3,7-dimethyl-1,6-dihydropyrazolo[4,3-d]pyrido[4,3-f][1,3]diazepin-9-yl)-2-methylmorpholine], the half-inhibitory concentration (IC50) in data set [1] was less than 2 nM. In addition, in data set [2], the CLhep predicted at 1 µM is less than 6.3 mL/min/kg.

`Cc1n[nH]c2c1N=C(c1c(F)cccc1F)Nc1ccc(N3CCN(CCF)CC3)cc1-2` [Example 25, 5-(2,6-difluorophenyl)-9-[4-(2-fluoroethyl)piperazin-1-yl]-3-methyl-1,6-dihydropyrazolo[4,3-d][1,3]benzodiazepine] came in with a half-maximal inhibitory concentration (IC50) in data set [1] of less than 2 nM. The CLhep predicted at 1 µM in data set [2] was less than 6.3 mL/min/kg.
